These are literature values, as cited in US20090197815A1, “COMBINATION OF SOMATOSTATIN-ANALOGS WITH DOPAMINE- OR GROWTH HORMONE RECEPTOR ANTAGONIST” (priority 2006, published 2009).

Like-named read-outs stand apart in the source and are kept apart here.

For data set [1], the system named is patients with acromegaly.
The test system of data set [2] is acromegalic patients. Conditions: cabergoline 1-3.5 mg/week added to depot SSA at maximum registered dose, 19 patients.
Data set [3] concerns patients with acromegaly. Conditions: daily subcutaneous monotherapy.
For data set [4], the system named is acromegalic patients.

On to `C[C@@H](O)[C@@H]1NC(=O)[C@H](CCCCN)NC(=O)[C@@H](Cc2c[nH]c3ccccc23)NC(=O)[C@H](Cc2ccccc2)NC(=O)[C@@H](NC(=O)[C@H](N)Cc2ccccc2)CSSC[C@@H](C(=O)N[C@H](CO)[C@@H](C)O)NC1=O` [Sandostatin®, octreotide acetate], for which, in data set [1], the “normalization of IGF-I” value was “approximately 60 % of cases”, the “patients with GH levels decreasing to <2.0 μg/L” value is listed as 40 % of patients and the “patients with GH levels decreasing to <5.0 μg/L” value is recorded as 65 % of patients.
As to `C=CCN1C[C@H](C(=O)N(CCCN(C)C)C(=O)NCC)C[C@@H]2c3cccc4[nH]cc(c34)C[C@H]21` [cabergoline], in data set [2], the “normalization of IGF1” value was 42 % patients; the “normalized both biochemical markers (GH<2.5 μg/L and IGF1 for age)” value is on record as 16 % of patients; the “reduction of GH<2.5 μg/L” value was 21 % of patients.
Consider pegvisomant, for which, in data set [3], the “change of GH concentrations during therapy” value was “increased by nearly twofold”, the “normalization of circulating IGF-I levels” value is recorded as 80 to 90 % of patients and the tolerability result is “good tolerability”. Also, the IGF-I concentration normal in data set [4] (after 18 weeks, at least 50 mg pegvisomant per week, with monthly 30 mg Sandostatin LAR or 120 mg lanreotide Autogel) is reported as 81 % of patients. For the same compound, the IGF-I concentration normal in data set [4] (at week 42, weekly pegvisomant with monthly 30 mg Sandostatin LAR or 120 mg lanreotide Autogel) is reported as 95 % of patients. In data set [4] (combined with monthly long-acting SSA, range 40-80 mg), the “median weekly dose needed to return IGF-I concentration to normal” value was 60 mg. The “patients with mild non-progressive increases in liver transaminases” value in data set [4] (from week 12, independent from pegvisomant dose, 10 patients, combined with long-acting SSA) is listed as 38%.
